Experimental data: the NIST ThermoML archive (doi:10.1016/j.fluid.2008.09.010)
Numbers after ± are expanded uncertainties.

Settings: Liquid; Ebulliometric method (Recirculating still)

Normal boiling temperature	Structure (SMILES)
118 ± 0.2 °C	CC(=O)O [acetic acid]
188.77 ± 0.2 °C	C[S+](C)[O-] [dimethyl sulfoxide]
152.6 ± 0.2 °C	CN(C)C=O [dimethylformamide]
